# Patent US20260224566A1, “Obicetrapib and Ezetimibe Combination Treatment and Fixed Dose Pharmaceutical Compositions” (NewAmsterdam Pharma B.V., priority 2023, published 2026)
# Structures can show the parent of a compound that is named as a salt.
# Experiments:
# [1] = Stability study at 70° C./75% RH, open vial (physical stability by XRPD, chemical purity by HPLC); format: physicochemical; conditions: 75% relative humidity
# Source text: FIG. 54 is a plot of x-ray powder diffraction pattern taken of crystalline obicetrapib hemicalcium, and FIG. 55 is a plot of x-ray powder diffraction patterns taken of crystalline obicetrapib hemicalcium under stress conditions. In FIG. 55, there are four diffraction patterns shown based on stability study set forth in Example 11.27. Pattern 1 is an x-ray powder diffraction pattern of a sample of amorphous obicetrapib hemicalcium. Pattern 2 is the x-ray powder diffraction pattern of a sample of crystalline obicetrapib hemicalcium. In pattern 3, the sample of crystalline obicetrapib hemicalcium was exposed to 70° C. at 75% relative humidity for one day. […] Pattern 1 was taken before the sample was placed on stability.
# Stability study was conducted on crystalline and amorphous forms of obicetrapib at 70° C./75% relative humidity (RH). The solids were placed into a 4.0 ml glass vial without caps (open condition) and stored at 70° C./75% RH. […] The solids were analyzed by XRPD for physical stability and by HPLC for chemical purity. The sample collected at each time point was dissolved in methanol before HPLC analysis. In order to minimize the effect of potential analyte adsorption on the filter, the initial 0.5 mL of supernatant passing through the filter was discarded prior to collecting sample for HPLC analysis. Purity for each sample was determined based on peak area percent and compared to the sample at T=0.
# [2] = Kinetic solubility in FaSSIF (pH 6.5) at 37° C.; format: physicochemical; conditions: as obicetrapib free acid
# Source text: (§1) The amorphous form has a higher kinetic solubility and dissolution rate than the crystalline form (and by extension obicetrapib itself). Both crystalline and amorphous obicetrapib hemicalcium kinetic solubility determinations were made in biorelevant media at different pHs, namely at about 5.0 (FeSSIF conditions) and at pH of about 6.5 (FaSSIF) conditions as set forth in Example 11.28.
# The concentrations in Table X are those of obicetrapib (i.e., the free acid).
# (§2) The solids were magnetically stirred at 600 RPM in a shaker bath and samples were drawn with a 1.0 ml syringe at T=15 mins, 30 mins, 60 mins, 90 mins and 120 mins. The solubility was measured using HPLC method provided by the client. The compound was added to 4.0 ml glass vials at approximately 20.0 mg/ml. Samples were agitated with a vortex mixer for about 5 minutes to ensure the presence of undissolved excess powder. The sample collected at each time point was centrifuged at 1200 RPM, filtered with 0.45 μm Polytetrafluoroethylene (PTFE) filters and diluted with methanol before HPLC analysis. In order to minimize the effect of potential analyte adsorption on the filter, the initial 0.5 mL of supernatant passing through the filter was discarded prior to collecting sample for HPLC analysis.
# [3] = Kinetic solubility in FeSSIF (pH 5.0) at 37° C.; format: physicochemical; conditions: as obicetrapib free acid
# Source text: as §1
# The concentrations in Table W are those of obicetrapib (i.e., the free acid).
# as §2
# [4] = system: ApoE*3-Leiden.CETP transgenic mice; experiment: Example 12: plasma lipids, VLDL clearance, LDL receptor, fecal and biliary sterols in ApoE*3-Leiden.CETP mice; format: in vivo, mouse
# Source text: Obicetrapib is a selective cholesteryl ester transfer protein (CETP) inhibitor currently in clinical development for the treatment of hypercholesterolemia and reduction of cardiovascular risk that strongly reduces Apolipoprotein B (ApoB) and low-density lipoprotein cholesterol (LDL-C) and concomitantly increases plasma high-density lipoprotein cholesterol (HDL-C). Ezetimibe reduces absorption of biliary and dietary cholesterol from the small intestine, thereby reducing LDL-C levels. The current study was carried out to elucidate the mechanism of action responsible for the observed decrease in non-HDL-C by obicetrapib monotherapy and in combination with ezetimibe in a translational mouse model for hyperlipidemia and atherosclerosis.
# (§3) The experimental protocol is illustrated in FIG. 71, with time (t) measured in weeks. Female ApoE*3-Leiden.CETP transgenic mice were fed a Western diet with 0.05% w/w cholesterol (equivalent to daily human intake) with (i) no drug (control), or the same diet containing (ii) obicetrapib alone (2 mg/kg/day), (iii) ezetimibe alone (1 mg/kg/day) or (iv) the combination of obicetrapib and ezetimibe. In the experiment, the effects of the treatments on, amongst other things, plasma blood lipids and fecal bile acids and sterols were determined.
# [5] = system: participants currently receiving high-intensity statin therapy; experiment: ROSE2 Phase 2b clinical trial: LDL-C and other lipid efficacy endpoints; format: in vivo, human; conditions: ROSE2; ezetimibe 10 mg on top of obicetrapib 10 mg
# Procedure: The primary objective of this study is to evaluate the effect of obicetrapib 10 mg+ezetimibe 10 mg combination therapy compared with placebo, when used as an adjunct to high-intensity statin therapy, on LDL-C at Day 84.
# The secondary objectives of this study include the following, in hierarchical order: • To evaluate the effect of obicetrapib 10 mg monotherapy compared with placebo, when used as an adjunct to high-intensity statin therapy, on LDL-C at Day 84; • To evaluate the effect of obicetrapib 10 mg+ezetimibe 10 mg combination therapy compared with placebo, when used as an adjunct to high-intensity statin therapy, on ApoB at Day 84; and • To evaluate the effect of obicetrapib 10 mg monotherapy compared with placebo, when used as an adjunct to high-intensity statin therapy, on ApoB at Day 84.
# This study will be a placebo-controlled, double-blind, randomized, Phase 2 study to evaluate the efficacy, safety, and tolerability of obicetrapib 10 mg, both in combination with ezetimibe 10 mg and as monotherapy, as an adjunct to high-intensity statin therapy. This study will take place at approximately 20 sites in the United States.
# Up to 2 weeks after the Screening Visit, participants will return to the site on Day 1 (Visit 2) and confirm study eligibility before being randomized and beginning treatment. Approximately 114 eligible participants (38 participants per treatment group) will be randomized in a 1:1:1 ratio to 1 of the following treatment groups: • Combination therapy: Obicetrapib 10 mg+ezetimibe 10 mg (administered as one 10 mg obicetrapib tablet and one 10 mg ezetimibe capsule); • Obicetrapib monotherapy: Obicetrapib 10 mg (administered as one 10 mg obicetrapib tablet and 1 placebo capsule); or. • Placebo (administered as 1 placebo tablet and 1 placebo capsule).
# During the 12-week Treatment Period, the assigned study drugs will be administered by the participants orally with water, once daily on Day 1 to Day 84 at approximately the same time each morning. Participants will return to the site on Day 28 (±2 days), Day 84 (±2 days), and Day 112 (±2 days) for efficacy, safety, and pharmacokinetic (PK) assessments. Participants, Investigators, the Clinical Research Organization (CRO), and the Sponsor will be blinded to all lipid results from Day 1 (Visit 2) for the first participant until all enrolled participants complete the Day 84 (End of Treatment) visit or are withdrawn from the study, in order to protect blinding to treatment assignment.
# The primary efficacy endpoint is the percent change from Day 1 to Day 84 in LDL-C for the obicetrapib 10 mg+ezetimibe 10 mg combination treatment group compared with the placebo group.
# The secondary efficacy endpoints include the following, in hierarchical order: • Percent change from Day 1 to Day 84 in LDL-C for the obicetrapib 10 mg monotherapy. • treatment group compared with the placebo group; • Percent change from Day 1 to Day 84 in ApoB for the obicetrapib 10 mg+ezetimibe 10 mg • combination treatment group compared with the placebo group; and • Percent change from Day 1 to Day 84 in ApoB for the obicetrapib 10 mg monotherapy treatment group compared with the placebo group.
# The exploratory efficacy endpoints include the following: • Percent change from Day 1 to Day 84 in non-HDL-C, VLDL-C, HDL-C, TG, ApoE, Lp(a), and HDL-ApoE for the obicetrapib 10 mg+ezetimibe 10 mg combination treatment group compared with the placebo group and for the obicetrapib 10 mg monotherapy treatment group compared with the placebo group; and • Proportion of participants at Day 84 that achieve LDL-C <2.6 mmol/L (<100 mg/dL), LDL-C <1.8 mmol/L (<70 mg/dL), and LDL-C <1.3 mmol/L (<50 mg/dL) for the obicetrapib 10 mg+ezetimibe 10 mg combination treatment group compared with the placebo group and for the obicetrapib 10 mg monotherapy treatment group compared with the placebo group. […]
# [6] = cited from earlier work
# [7] = system: ApoE*3-Leiden.CETP transgenic mice; experiment: Example 13: plasma cholesterol and atherosclerosis development in aortic root of ApoE*3-Leiden.CETP mice; format: in vivo, mouse
# Procedure: The current study was carried out to evaluate the effect of obicetrapib monotherapy and a combination of obicetrapib+ezetimibe on atherosclerosis development in a translational mouse model for hyperlipidemia and atherosclerosis.
# as §3, with “82,” for “71,”, “(on average 0.6” for “(1”, “ezetimibe.” for “ezetimibe. In the experiment, the effects of the treatments on, amongst other things, plasma blood lipids and fecal bile acids and sterols were determined.”
# [8] = system: patients with hypercholesterolemia; conditions: cited from earlier work
# [9] = 15 mins, listed as Amorphous obicetrapib hemicalcium Batch #1
# [10] = 15 mins, listed as Amorphous obicetrapib hemicalcium Batch #2
# [11] = 30 mins, listed as Amorphous obicetrapib hemicalcium Batch #1
# [12] = 30 mins, listed as Amorphous obicetrapib hemicalcium Batch #2
# [13] = 60 mins, listed as Amorphous obicetrapib hemicalcium Batch #1
# [14] = 60 mins, listed as Amorphous obicetrapib hemicalcium Batch #2
# [15] = 90 mins, listed as Amorphous obicetrapib hemicalcium Batch #1
# [16] = 90 mins, listed as Amorphous obicetrapib hemicalcium Batch #2
# [17] = 120 mins, listed as Amorphous obicetrapib hemicalcium Batch #1
# [18] = 120 mins, listed as Amorphous obicetrapib hemicalcium Batch #2
# [19] = obicetrapib 2 mg/kg/day, ezetimibe 1 mg/kg/day in Western diet
# [20] = obicetrapib 2 mg/kg/day, ezetimibe on average 0.6 mg/kg/day in Western diet
structure (smiles),measurement,setting,value
"CCOC(=O)N1c2ccc(C(F)(F)F)cc2[C@@H](N(Cc2cc(C(F)(F)F)cc(C(F)(F)F)c2)c2ncc(OCCCC(=O)[O-])cn2)C[C@H]1CC.CCOC(=O)N1c2ccc(C(F)(F)F)cc2[C@@H](N(Cc2cc(C(F)(F)F)cc(C(F)(F)F)c2)c2ncc(OCCCC(=O)[O-])cn2)C[C@H]1CC.[Ca+2] [crystalline obicetrapib hemicalcium, reference compound]",physical stability by XRPD,[1]; 7 days,the result remains the same
same,physical stability by XRPD,[1]; one day,near total loss of crystallinity
"CCOC(=O)N1c2ccc(C(F)(F)F)cc2[C@@H](N(Cc2cc(C(F)(F)F)cc(C(F)(F)F)c2)c2ncc(OCCCC(=O)O)cn2)C[C@H]1CC [amorphous obicetrapib hemicalcium, amorphous hemicalcium salt of (2R,4S)-4-{[3,5-bis(trifluoromethyl)benzyl]-[5-(3-carboxypropoxy)pyrimidin-2-yl]amino}-2-ethyl-6-trifluoromethyl-3,4-dihydro-2H-quinoline-1-carboxylic acid ethyl ester]",physical stability by XRPD,[1]; 7 days,remained amorphous
same,physical stability by XRPD,[1]; 14 days,remained amorphous
same,Concentration in Solution,[2]; [9],60 µg/mL
same,Concentration in Solution,[2]; [10],90 µg/mL
same,Concentration in Solution,[2]; [11],99 µg/mL
same,Concentration in Solution,[2]; [12],140 µg/mL
same,Concentration in Solution,[2]; [13],163 µg/mL
same,Concentration in Solution,[2]; [14],229 µg/mL
same,Concentration in Solution,[2]; [15],201 µg/mL
same,Concentration in Solution,[2]; [16],293 µg/mL
same,Concentration in Solution,[2]; [17],244 µg/mL
same,Concentration in Solution,[2]; [18],387 µg/mL
same,Concentration in Solution,[3]; [9],520 µg/mL
same,Concentration in Solution,[3]; [10],502 µg/mL
same,Concentration in Solution,[3]; [11],661 µg/mL
same,Concentration in Solution,[3]; [12],618 µg/mL
same,Concentration in Solution,[3]; [13],675 µg/mL
same,Concentration in Solution,[3]; [14],628 µg/mL
same,Concentration in Solution,[3]; [15],696 µg/mL
same,Concentration in Solution,[3]; [16],658 µg/mL
same,Concentration in Solution,[3]; [17],675 µg/mL
same,Concentration in Solution,[3]; [18],642 µg/mL
"O=C1[C@H](CC[C@H](O)c2ccc(F)cc2)[C@@H](c2ccc(O)cc2)N1c1ccc(F)cc1 [ezetimibe, (3R,4S)-1-(4-fluorophenyl)-3-[(3S)-3-(4-fluorophenyl)-3-hydroxypropyl]-4-(4-hydroxyphenyl)azetidin-2-one]",biliary bile acids and biliary bile acid flow,[4]; not shown,did not affect
same,biliary cholesterol flow,[4]; not shown,no significant effects
same,biliary cholesterol levels,[4]; not shown,decreased
same,biliary phospholipids and biliary phospholipid flow,[4]; not shown,did not affect
same,"fecal neutral sterol excretion, change",[4]; [19],+68%
same,"half-life of VLDL-like particles, change",[4]; [19],−23%
same,"non-HDL-C levels, change",[4]; [19],−24%
same,"total plasma cholesterol levels, change",[4]; [19],−23%
same,additional/incremental (median) reduction of LDL-C of ezetimibe added on top of obicetrapib,[5],about 32%
same,solubility in water,[6],practically insoluble
same,HDL-cholesterol,[7]; FIG. 84B,no increase
same,"severe lesions (types IV-V), change","[7]; aortic root, 28 weeks of treatment",−31%
same,"total atherosclerotic lesion size, change","[7]; aortic root, 28 weeks of treatment, versus control",−50%
same,"non-HDL-C levels, change",[7]; [20],−19%
same,"total plasma cholesterol levels, change",[7]; [20],−19%
same,lesion number,"[7]; versus control animals, FIG. 90B",no reduction
same,incremental reduction in LDL-C levels in combination with statins,[8]; Catapano et al. 2016,15-20%
same,LDL-C reduction typical with ezetimibe mono-therapy,"[8]; hyperlipidemic patients, Catapano et al. 2016",15-22%
same,"greater reduction in LDL-C, statin and ezetimibe in combination compared with statin alone","[8]; meta-analysis of 27 studies, more than 21,000 patients",15.1%
